The record followed here is patent US12344603B2 (Genentech, Inc., priority 2020, dated 2025).

Counter-ions that a name gives are not always drawn.

The target in the experiment is IRE1α (Homo sapiens (Human), UniProt O75460, D688N). Description: IRE1α TR-FRET competition binding assay (IRE1α HTRF). The conditions noted are these: TR-FRET competition binding to kinase domain of IRE1α. Put shortly: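 Competition of compounds against an Alexa fluor 647 ATP-site probe (2 nM final) for the His-tagged kinase domain (0.25 nM final), detected via 2 nM Eu anti-His antibody by TR-FRET, 665 and 615 nm emission. Protein–antibody premix 1 h, 4° C; reaction 1 h, room temperature, pH 7.5 HEPES buffer.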
Chain of IRE1α (O75460 547-977 D688N): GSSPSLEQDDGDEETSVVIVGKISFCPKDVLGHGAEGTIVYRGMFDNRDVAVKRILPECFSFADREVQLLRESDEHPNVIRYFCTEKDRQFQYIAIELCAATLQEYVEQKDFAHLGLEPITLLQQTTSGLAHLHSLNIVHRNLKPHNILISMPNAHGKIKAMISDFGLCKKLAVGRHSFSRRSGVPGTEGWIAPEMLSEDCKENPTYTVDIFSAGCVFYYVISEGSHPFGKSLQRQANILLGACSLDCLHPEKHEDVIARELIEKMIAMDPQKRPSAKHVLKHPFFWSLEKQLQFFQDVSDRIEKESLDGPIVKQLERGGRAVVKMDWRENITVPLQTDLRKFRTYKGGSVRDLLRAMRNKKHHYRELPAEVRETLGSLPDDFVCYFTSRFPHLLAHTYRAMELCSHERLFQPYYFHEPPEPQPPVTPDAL
On the technique in general: Time-resolved FRET reads energy transfer from a long-lived donor to a nearby acceptor.
For orientation: IC50 means the concentration that gives 50% inhibition. Low values mean greater potency, high ones weaker potency. As for `CC(C)n1c(=O)c(-c2cc(F)c(NS(=O)(=O)CCC(C)(F)F)c(F)c2F)cc2cnc(N[C@H]3CC[C@H](N(C)C)CC3)nc21` [Compound 33, N-(4-(2-(((1r,4r)-4-(Dimethylamino)cyclohexyl)amino)-8-isopropyl-7-oxo-7,8-dihydropyrido[2,3-d]pyrimidin-6-yl)-2,3,6-trifluorophenyl)-3,3-difluorobutane-1-sulfonamide], the IC50 was found to be 0.98 nM.

In turn, `CCC(F)(F)CS(=O)(=O)Nc1c(F)cc(-c2cc3cnc(N[C@H]4CC[C@H](N(C)C)CC4)nc3n(C(C)C)c2=O)c(F)c1F` [Compound 36, N-(4-(2-(((1r,4r)-4-(Dimethylamino)cyclohexyl)amino)-8-isopropyl-7-oxo-7,8-dihydropyrido[2,3-d]pyrimidin-6-yl)-2,3,6-trifluorophenyl)-2,2-difluorobutane-1-sulfonamide] returned an IC50 of 0.18 nM.

Compound `CC(C)n1c(=O)c(-c2cc(F)c(NC(=O)C3CC3)c(F)c2F)cc2cnc(N[C@H]3CC[C@H](N(C)C)CC3)nc21` [Compound 37, N-(4-(2-(((1r,4r)-4-(Dimethylamino)cyclohexyl)amino)-8-isopropyl-7-oxo-7,8-dihydropyrido[2,3-d]pyrimidin-6-yl)-2,3,6-trifluorophenyl)cyclopropanecarboxamide] registered an IC50 of 1.4 nM.

Take `CC(C)n1c(=O)c(-c2cc(F)c(NS(=O)(=O)Cc3ccn(C)n3)c(F)c2F)cc2cnc(N[C@@H]3CNC[C@@H](F)C3)nc21` [Compound 38, 1-(1-Methyl-1H-pyrazol-3-yl)-N-(2,3,6-trifluoro-4-(2-(((3S,5S)-5-fluoropiperidin-3-yl)amino)-8-isopropyl-7-oxo-7,8-dihydropyrido[2,3-d]pyrimidin-6-yl)phenyl)methanesulfonamide]: the IC50 turned out to be 0.39 nM.

The compound `CCn1c(=O)c(-c2cc(F)c(NS(=O)(=O)Cc3cccc(C(F)(F)F)c3)c(F)c2F)cc2cnc(N[C@@H]3CNC[C@@H](F)C3)nc21` [Compound 39, N-(4-(8-Ethyl-2-(((3S,5S)-5-fluoropiperidin-3-yl)amino)-7-oxo-7,8-dihydropyrido[2,3-d]pyrimidin-6-yl)-2,3,6-trifluorophenyl)-1-(3-(trifluoromethyl)phenyl)methanesulfonamide] registered an IC50 of 0.4 nM.

`O=c1c(-c2ccc(NS(=O)(=O)Cc3ccccc3)c(F)c2F)cc2cnc(N[C@@H]3CNC[C@@H](F)C3)nc2n1CC(F)(F)F` [Compound 40, N-(2,3-Difluoro-4-(2-(((3S,5S)-5-fluoropiperidin-3-yl)amino)-7-oxo-8-(2,2,2-trifluoroethyl)-7,8-dihydropyrido[2,3-d]pyrimidin-6-yl)phenyl)-1-phenylmethanesulfonamide] returned an IC50 of 1.7 nM.

Take `CCC1CCN(c2ccc(-c3cc4cnc(N[C@@H]5CNC[C@@H](F)C5)nc4n(CC)c3=O)c(F)c2F)C1=O` (stereo partly drawn) [Compound 41, 8-Ethyl-6-(4-(3-ethyl-2-oxopyrrolidin-1-yl)-2,3-difluorophenyl)-2-(((3S,5S)-5-fluoropiperidin-3-yl)amino)pyrido[2,3-d]pyrimidin-7(8H)-one]: the IC50 came to 87 nM.

Compound `CC(n1c(=O)c(-c2ccc(NS(=O)(=O)Cc3ccccc3)c(F)c2F)cc2cnc(N[C@@H]3CNC[C@@H](F)C3)nc21)C(F)(F)F` (stereo partly drawn) [Compound 42, N-(2,3-difluoro-4-(2-(((3S,5S)-5-fluoropiperidin-3-yl)amino)-7-oxo-8-(1,1,1-trifluoropropan-2-yl)-7,8-dihydropyrido[2,3-d]pyrimidin-6-yl)phenyl)-1-phenylmethanesulfonamide trifluoroacetate salt] came in with an IC50 of 3.6 nM.

The compound `CC(C)n1c(=O)c(-c2ccc(NS(=O)(=O)Cc3ccccc3)c(F)c2F)nc2cnc(N[C@@H]3CNC[C@@H](F)C3)nc21` [Compound 43, N-(2,3-Difluoro-4-(2-(((3S,5S)-5-fluoropiperidin-3-yl)amino)-8-isopropyl-7-oxo-7,8-dihydropteridin-6-yl)phenyl)-1-phenylmethanesulfonamide] registered an IC50 of 0.71 nM.

For `CC(C)n1c(=O)c(-c2ccc(NS(=O)(=O)Cc3ccccc3)c(F)c2)nc2cnc(N[C@@H]3CNC[C@@H](F)C3)nc21` [Compound 44, N-(2-Fluoro-4-(2-(((3S,5S)-5-fluoropiperidin-3-yl)amino)-8-isopropyl-7-oxo-7,8-dihydropteridin-6-yl)phenyl)-1-phenylmethanesulfonamide], the IC50 amounted to 0.28 nM.

As for `CC(C)n1c(=O)c(-c2cc(F)c(NS(=O)(=O)Cc3ccccc3)c(F)c2)nc2cnc(N[C@@H]3CNC[C@@H](F)C3)nc21` [Compound 45, N-(2,6-Difluoro-4-(2-(((3S,5S)-5-fluoropiperidin-3-yl)amino)-8-isopropyl-7-oxo-7,8-dihydropteridin-6-yl)phenyl)-1-phenylmethanesulfonamide], the IC50 was 0.22 nM.

`CC(C)n1c(=O)c(-c2cc(F)c(NS(=O)(=O)CCC(F)(F)F)c(F)c2)nc2cnc(N[C@@H]3CNC[C@@H](F)C3)nc21` [Compound 46, N-(2,6-Difluoro-4-(2-(((3S,5S)-5-fluoropiperidin-3-yl)amino)-8-isopropyl-7-oxo-7,8-dihydropteridin-6-yl)phenyl)-3,3,3-trifluoropropane-1-sulfonamide] came in with an IC50 of 0.47 nM.

With `CCn1c(=O)c(-c2cc(F)c(NS(=O)(=O)Cc3ccc(C#N)cc3)c(F)c2F)cc2cnc(N[C@@H]3CNC[C@@H](F)C3)nc21` [Compound 47, 1-(4-cyanophenyl)-N-(4-(8-ethyl-2-(((3S,5S)-5-fluoropiperidin-3-yl)amino)-7-oxo-7,8-dihydropyrido[2,3-d]pyrimidin-6-yl)-2,3,6-trifluorophenyl)methanesulfonamide], the IC50 was 0.37 nM.

Turning to `CCn1c(=O)c(-c2cc(F)c(NS(=O)(=O)CC3(F)CC3)c(F)c2F)cc2cnc(N[C@@H]3CNC[C@@H](F)C3)nc21` [Compound 48, N-(4-(8-ethyl-2-(((3S,5S)-5-fluoropiperidin-3-yl)amino)-7-oxo-7,8-dihydropyrido[2,3-d]pyrimidin-6-yl)-2,3,6-trifluorophenyl)-1-(1-fluorocyclopropyl)methanesulfonamide], the IC50 is 28 nM.

In turn, `CCn1c(=O)c(-c2cc(F)c(NS(=O)(=O)Cc3ccccn3)c(F)c2F)cc2cnc(N[C@@H]3CNC[C@@H](F)C3)nc21` [Compound 49, N-(4-(8-ethyl-2-(((3S,5S)-5-fluoropiperidin-3-yl)amino)-7-oxo-7,8-dihydropyrido[2,3-d]pyrimidin-6-yl)-2,3,6-trifluorophenyl)-1-(pyridin-2-yl)methanesulfonamide] displayed an IC50 of 5 nM.

`CCn1c(=O)c(-c2cc(F)c(NS(=O)(=O)Cc3ccc(C(F)(F)F)cc3)c(F)c2F)cc2cnc(N[C@@H]3CNC[C@@H](F)C3)nc21` [Compound 50, N-(4-(8-ethyl-2-(((3S,5S)-5-fluoropiperidin-3-yl)amino)-7-oxo-7,8-dihydropyrido[2,3-d]pyrimidin-6-yl)-2,3,6-trifluorophenyl)-1-(4-(trifluoromethyl)phenyl)methanesulfonamide hydrochloride] yielded an IC50 of 0.22 nM.

As to `CCn1c(=O)c(-c2cc(F)c(NS(=O)(=O)Cc3c(F)cccc3F)c(F)c2F)cc2cnc(N[C@@H]3CNC[C@@H](F)C3)nc21` [Compound 51, 1-(2,6-difluorophenyl)-N-(4-(8-ethyl-2-(((3S,5S)-5-fluoropiperidin-3-yl)amino)-7-oxo-7,8-dihydropyrido[2,3-d]pyrimidin-6-yl)-2,3,6-trifluorophenyl)methanesulfonamide], the IC50 amounted to 0.7 nM.

Consider `O=c1c(-c2ccc(NS(=O)(=O)Cc3ccccc3)c(F)c2F)cc2cnc(N[C@@H]3CNC[C@@H](F)C3)nc2n1CC1CC1` [Compound 52, N-(4-(8-(cyclopropylmethyl)-2-(((3S,5S)-5-fluoropiperidin-3-yl)amino)-7-oxo-7,8-dihydropyrido[2,3-d]pyrimidin-6-yl)-2,3-difluorophenyl)-1-phenylmethanesulfonamide trifluoroacetate salt], for which the IC50 is 0.8 nM.

Regarding `O=c1c(-c2ccc(NS(=O)(=O)Cc3ccccc3)c(F)c2F)cc2cnc(N[C@@H]3CNC[C@@H](F)C3)nc2n1CCF` [Compound 53, N-(2,3-Difluoro-4-(8-(2-fluoroethyl)-2-(((3S,5S)-5-fluoropiperidin-3-yl)amino)-7-oxo-7,8-dihydropyrido[2,3-d]pyrimidin-6-yl)phenyl)-1-phenylmethanesulfonamide], the IC50 turned out to be 0.71 nM.

On to `CC(C)n1c(=O)c(-c2cc(F)c(NS(=O)(=O)c3ccccc3)c(F)c2F)cc2cnc(N[C@@H]3CNC[C@@H](F)C3)nc21` [Compound 54, N-(2,3,6-Trifluoro-4-(2-(((3S,5S)-5-fluoropiperidin-3-yl)amino)-8-isopropyl-7-oxo-7,8-dihydropyrido[2,3-d]pyrimidin-6-yl)phenyl)benzenesulfonamide], for which the IC50 was determined as 0.34 nM.

For the compound `O=c1c(-c2cc(F)c(NS(=O)(=O)Cc3ccccc3)c(F)c2F)cc2cnc(N[C@@H]3CNC[C@@H](F)C3)nc2n1C1CC(F)(F)C1` [Compound 55, N-(4-(8-(3,3-Difluorocyclobutyl)-2-(((3S,5S)-5-fluoropiperidin-3-yl)amino)-7-oxo-7,8-dihydropyrido[2,3-d]pyrimidin-6-yl)-2,3,6-trifluorophenyl)-1-phenylmethanesulfonamide hydrochloride], the IC50 was found to be 0.42 nM.

In the case of `CC(C)n1c(=O)c(-c2cc(F)c(NS(=O)(=O)Cc3ccccc3)c(F)c2F)cc2cnc(N[C@H]3CC[C@H](N)CC3)nc21` [Compound 56, N-(4-(2-(((1r,4r)-4-Aminocyclohexyl)amino)-8-isopropyl-7-oxo-7,8-dihydropyrido[2,3-d]pyrimidin-6-yl)-2,3,6-trifluorophenyl)-1-phenylmethanesulfonamide], the IC50 stood at 0.17 nM.

`COc1ccc(CS(=O)(=O)Nc2c(F)cc(-c3cc4cnc(N[C@@H]5CNC[C@@H](F)C5)nc4n(C(C)C)c3=O)c(F)c2F)cc1` [Compound 57, 1-(4-Methoxyphenyl)-N-(2,3,6-trifluoro-4-(2-(((3S,5S)-5-fluoropiperidin-3-yl)amino)-8-isopropyl-7-oxo-7,8-dihydropyrido[2,3-d]pyrimidin-6-yl)phenyl)methanesulfonamide] registered an IC50 of 0.14 nM.
